# Earlier results, collected in publication PMC11187573, “Identification of SARS-CoV-2 Mpro inhibitors through deep reinforcement learning for de novo drug design and computational chemistry approaches” (RSC Medicinal Chemistry, 2024).
# System: SARS, SARS-CoV-2 and MERS Mpro
# Conditions: Origin COVID_Moonshot; ref COVID Moonshot; cited from earlier work
row,SMILES,IC50
1,"CC(NC(=O)CCl)c1cc(Cl)cc(-c2ccc(S(N)(=O)=O)cc2)c1 (stereo not shown) [DAV-CRI-14a23e73-1, CC(c1cc(Cl)cc(-c(cc2)ccc2S(N)(=O)=O)c1)NC(CCl)=O]",466 nM
2,"O=S(=O)(Nc1ccccc1SCc1cccc(Cl)c1F)c1cc(Cl)sc1Cl [LON-WEI-4d77710c-64, O=S(c(cc(s1)Cl)c1Cl)(Nc(cccc1)c1SCc1cccc(Cl)c1F)=O]",2230 nM
3,"CS(=O)(=O)c1ncc(Cl)c(C(=O)Nc2ccccc2Cc2ccccc2)n1 [LON-WEI-ff7b210a-4, CS(c(nc1)nc(C(Nc2c(Cc3ccccc3)cccc2)=O)c1Cl)(=O)=O]",503 nM
4,"COCc1cc(Cl)cc(CN2CCN(C(=O)CCl)CC2)c1 [MED-COV-4280ac29-33, COCc1cc(CN(CC2)CCN2C(CCl)=O)cc(Cl)c1]",4770 nM
5,"O=C(CCl)N1CCN(C(c2ccccc2)c2ccccc2)CC1 [SIM-SYN-f15aaa3a-1, O=C(CCl)N(CC1)CCN1C(c1ccccc1)c1ccccc1]",1980 nM
6,"Cc1ccncc1NC(=O)Cc1cc(Cl)cc(OC2CC(=O)N2)c1 (stereo not shown) [TRY-UNI-2eddb1ff-7, Cc(ccnc1)c1NC(Cc1cc(Cl)cc(OC(C2)NC2=O)c1)=O]",3610 nM
7,"O=C(CCl)N1CC2CC1CN2Cc1cccc(Cl)c1 (stereo not shown) [DAN-LON-a5fc619e-8, O=C(CCl)N1C(C2)CN(Cc3cccc(Cl)c3)C2C1]",2170 nM
8,"N#Cc1cccc(C2CN(C(=O)CCl)Cc3ccccc32)c1 (stereo not shown) [NIR-THE-c331be7a-2, N#Cc1cccc(C(CN(C2)C(CCl)=O)c3c2cccc3)c1]",1170 nM
9,"Cc1cc(C(=O)CCl)c(C)n1CC1COc2ccccc2O1 (stereo not shown) [TAT-ENA-80bfd3e5-32, Cc1cc(C(CCl)=O)c(C)n1CC1Oc(cccc2)c2OC1]",2820 nM
10,"C=CC(=O)N(c1ccc(C(C)(C)C)cc1)C(C(=O)NCCc1cccc(F)c1)c1cccnc1 (stereo not shown) [LON-WEI-adc59df6-47, CC(C)(C)c(cc1)ccc1N(C(C(NCCc1cccc(F)c1)=O)c1cnccc1)C(C=C)=O]",2960 nM
11,"O=[N+]([O-])c1cnc(Sc2nnc(-c3ccc(Cl)cc3)o2)s1 [LON-WEI-4d77710c-67, [O-][N+](c1cnc(Sc2nnc(-c(cc3)ccc3Cl)o2)s1)=O]",881 nM
12,"NS(=O)(=O)CCc1ccccc1CN1CCN(C(=O)CCl)CC1 [MIH-UNI-e573136b-5, NS(CCc1c(CN(CC2)CCN2C(CCl)=O)cccc1)(=O)=O]",2720 nM
13,"Cc1ccccc1NC(=O)CC1SC(=O)N(c2ccccc2)C1=O (stereo not shown) [LON-WEI-4d77710c-75, Cc(cccc1)c1NC(CC(C(N1c2ccccc2)=O)SC1=O)=O]",443 nM
14,"Cc1cc(Cl)cc(CC2CCN(C(=O)CCl)CC2)c1 [NIR-THE-0d6461ce-8, Cc1cc(Cl)cc(CC(CC2)CCN2C(CCl)=O)c1]",3570 nM
15,"COc1cc(CN2CCN(C(=O)CCl)CC2)c2ccccc2c1 [DAR-DIA-fb20be43-7, COc1cc2ccccc2c(CN(CC2)CCN2C(CCl)=O)c1]",2750 nM
16,"O=C(Nc1cccnc1)N(CCC1CCCCC1)c1cccc(Cl)c1 [JOR-UNI-2fc98d0b-12, O=C(Nc1cnccc1)N(CCC1CCCCC1)c1cccc(Cl)c1]",3060 nM
17,"O=C(CCl)N1CCN(S(=O)(=O)C2=CC[SH]=C2)CC1 [MAK-UNK-d4768348-1, O=C(CCl)N(CC1)CCN1S(C1=CCS=C1)(=O)=O]",1630 nM
18,"CC(C)C[C@@H]1CN(C(=O)CCl)CCN1Cc1cccc(Cl)c1 [DAN-LON-a5fc619e-3, CC(C)C[C@H](C1)N(Cc2cccc(Cl)c2)CCN1C(CCl)=O]",784 nM
19,"N#Cc1cc(CN2CCN(C(=O)CCl)CC2)c2ccccc2c1 [DAR-DIA-fb20be43-6, N#Cc1cc2ccccc2c(CN(CC2)CCN2C(CCl)=O)c1]",4610 nM
20,"CCNc1ncc(C#N)cc1CN1CCN(C(=O)CCl)CC1 [DAR-DIA-fb20be43-4, CCNc(nc1)c(CN(CC2)CCN2C(CCl)=O)cc1C#N]",3220 nM
21,"O=C(CCl)N1CCN(S(=O)(=O)c2c(F)cccc2F)CC1 [LON-WEI-8f408cad-2, O=C(CCl)N(CC1)CCN1S(c(c(F)ccc1)c1F)(=O)=O]",3280 nM

# Same assay, conditions: Origin ChEMBL; ref ChEMBL; cited from earlier work
row,SMILES,IC50
1,"O=C1c2c(O)cc(O)cc2O[C@H](c2cc(O)c(O)c(O)c2)[C@H]1O [CHEMBL3348861, O[C@H]([C@@H](c(cc1O)cc(O)c1O)Oc1c2c(O)cc(O)c1)C2=O]",180 nM
2,"Cc1coc2c1C(=O)C(=O)c1c-2ccc2c1CCCC2(C)C [CHEMBL187266, CC(C)(CCC1)c(cc2)c1c(C1=O)c2-c(occ2C)c2C1=O]",1600 nM
3,"O=C1C(=O)N(Cc2cc3ccccc3s2)c2ccc(F)cc21 [CHEMBL187598, O=C(c(cc(cc1)F)c1N1Cc2cc(cccc3)c3s2)C1=O]",4820 nM
4,"Cc1c(OCC(F)(F)F)ccnc1C[S+]([O-])c1nc2ccccc2[nH]1 (stereo not shown) [CHEMBL480, Cc(c(C[S+](c1nc(cccc2)c2[nH]1)[O-])ncc1)c1OCC(F)(F)F]",995 nM
5,"O=C1C(=O)N(Cc2ccc3ccccc3c2)c2ccc(I)cc21 [CHEMBL383725, O=C(c(cc(cc1)I)c1N1Cc2cc3ccccc3cc2)C1=O]",1100 nM
6,"Cc1coc2c1C(=O)C(=O)c1c-2ccc2c(C)cccc12 [CHEMBL363535, Cc1coc(-c(ccc2c(C)cccc22)c2C2=O)c1C2=O]",700 nM
7,"Oc1cc2c(cc1O)[C@H]1c3ccccc3CN[C@@H]1CC2 [CHEMBL1256832, Oc(cc(CC[C@H]([C@@H]12)NCc3c2cccc3)c1c1)c1O]",1050 nM
8,O=C(O)CCCCCCCCCCCCCCc1ccc(I)cc1 [CHEMBL128251],2250 nM
9,"O=C1C(=O)N(Cc2cc3ccccc3s2)c2ccc(I)cc21 [CHEMBL190743, O=C(c(cc(cc1)I)c1N1Cc2cc(cccc3)c3s2)C1=O]",950 nM
10,"Nc1nnc(Sc2ncc([N+](=O)[O-])s2)s1 [CHEMBL510038, Nc1nnc(Sc2ncc([N+]([O-])=O)s2)s1]",30 nM
11,"C=CC(=O)c1ccc2ccccc2c1 [CHEMBL154580, C=CC(c1cc2ccccc2cc1)=O]",1240 nM
12,"COc1ccc2[nH]c([S+]([O-])Cc3ncc(C)c(OC)c3C)nc2n1 (stereo not shown) [CHEMBL1475252, Cc1cnc(C[S+](c2nc(nc(cc3)OC)c3[nH]2)[O-])c(C)c1OC]",970 nM
13,"O=C1C(Cl)=C(Cl)C(=O)C(Cl)=C1Cl [CHEMBL192627, O=C(C(Cl)=C(C1=O)Cl)C(Cl)=C1Cl]",20 nM
14,"O=[N+]([O-])c1ccc(Sc2cccc[n+]2[O-])c2nonc12 [CHEMBL505670, [O-][N+](c(c1nonc11)ccc1Sc(cccc1)[n+]1[O-])=O]",100 nM
15,"O=C(O)c1ccc(SSc2ccc(C(=O)O)cn2)nc1 [CHEMBL1161936, OC(c(cc1)cnc1SSc(cc1)ncc1C(O)=O)=O]",240 nM
16,"Cc1ccccc1N(C)C(=O)c1ccc([S+]([O-])c2nccs2)c([N+](=O)[O-])c1 (stereo not shown) [CHEMBL4303376, Cc(cccc1)c1N(C)C(c(cc1)cc([N+]([O-])=O)c1[S+](c1nccs1)[O-])=O]",1870 nM
17,"COc1cccc(C(=O)CCN[C@@H](C)[C@H](O)c2ccccc2)c1 [CHEMBL2354521, C[C@@H]([C@@H](c1ccccc1)O)NCCC(c1cc(OC)ccc1)=O]",2350 nM
18,"O=C1C(=O)N(Cc2cc3ccccc3s2)c2c1cccc2[N+](=O)[O-] [CHEMBL187717, [O-][N+](c(cccc1C2=O)c1N(Cc1cc(cccc3)c3s1)C2=O)=O]",2000 nM
19,"CC(C)N(CCC(=O)c1ccc2ccccc2c1)Cc1ccccc1 [CHEMBL596674, CC(C)N(CCC(c1cc2ccccc2cc1)=O)Cc1ccccc1]",580 nM

row,SMILES,IC50
1,"Oc1cc2c(cc1C(c1ccc(C(F)(F)F)cc1)N1CCOCC1)OCO2 (stereo not shown) [CHEMBL3797437, Oc1c(C(c2ccc(C(F)(F)F)cc2)N2CCOCC2)cc2OCOc2c1]",540 nM
2,"O=c1cc(-c2ccccc2)oc2cc(O)c(O)c(O)c12 [CHEMBL8260, Oc(cc(c1c2O)OC(c3ccccc3)=CC1=O)c2O]",20 nM
3,"C[n+]1c2cc(N)ccc2cc2ccc(N)cc21 [CHEMBL354349, C[n+](c1c2)c(cc(cc3)N)c3cc1ccc2N]",3460 nM
4,"CCN1CCN(C(c2ccc(C(F)(F)F)cc2)c2ccc3cccnc3c2O)CC1 (stereo not shown) [CHEMBL1422849, CCN(CC1)CCN1C(c1ccc(C(F)(F)F)cc1)c(ccc1cccnc11)c1O]",150 nM
5,"CCC(=O)OCN1C(=O)C=CC1=O [CHEMBL1374426, CCC(OCN(C(C=C1)=O)C1=O)=O]",290 nM
6,"C[N+]1(C)CCC(OC(=O)C(c2ccccc2)c2ccccc2)CC1 [CHEMBL168067, C[N+](C)(CC1)CCC1OC(C(c1ccccc1)c1ccccc1)=O]",2360 nM
7,"CCOc1cc(C(Nc2cc(C)ccn2)c2ccc3cccnc3c2O)ccc1OC (stereo not shown) [CHEMBL1397952, CCOc(cc(C(c(ccc1cccnc11)c1O)Nc1nccc(C)c1)cc1)c1OC]",270 nM
8,"O=[N+]([O-])c1cnc(Sc2nnc(O)n2-c2ccc3c(c2)OCCO3)s1 [CHEMBL508280, [O-][N+](c1cnc(Sc(n2-c(cc3)cc4c3OCCO4)nnc2O)s1)=O]",2050 nM
9,"O=C(CSc1nccc(-c2csc(-c3ccccc3)n2)n1)Nc1cc(Cl)cc(Cl)c1 [CHEMBL208732, O=C(CSc1nc(-c2csc(-c3ccccc3)n2)ccn1)Nc1cc(Cl)cc(Cl)c1]",3000 nM
10,"C[C@@](Cc1ccc(O)c(O)c1)(NN)C(=O)O [CHEMBL1201236, C[C@](Cc(cc1)cc(O)c1O)(C(O)=O)NN]",3550 nM
11,"Cc1ccc(S(=O)(=O)N[C@@H](Cc2ccccc2)C(=O)CCl)cc1 [CHEMBL60718, Cc(cc1)ccc1S(N[C@@H](Cc1ccccc1)C(CCl)=O)(=O)=O]",1370 nM
12,"O=C1C(Cl)=C(N2CCOCC2)C(=O)N1c1ccc(Cl)c(Cl)c1 [CHEMBL1271993, O=C(C(N1CCOCC1)=C(C1=O)Cl)N1c(cc1)cc(Cl)c1Cl]",2840 nM
13,"CC(Cc1ccc(O)c(O)c1)C(C)Cc1ccc(O)c(O)c1 (stereo not shown) [CHEMBL52, CC(Cc(cc1)cc(O)c1O)C(C)Cc(cc1)cc(O)c1O]",2590 nM
14,"CC(C)(C)c1ccc(S(=O)(=O)/C=C/C#N)cc1 [CHEMBL270299, CC(C)(C)c(cc1)ccc1S(/C=C/C#N)(=O)=O]",840 nM
15,"COCCCOc1ccnc(C[S+]([O-])c2nc3ccccc3[nH]2)c1C (stereo not shown) [CHEMBL1200930, Cc(c(C[S+](c1nc(cccc2)c2[n-]1)[O-])ncc1)c1OCCCOC]",740 nM
16,"O=C1C=CC(=O)C2=C1C1c3ccccc3C2c2ccccc21 [CHEMBL1474701, O=C(C=C1)C(C(c2c(C34)cccc2)c2c4cccc2)=C3C1=O]",240 nM
17,"O=C(c1ccc(/C=C/c2n[nH]c3ccccc23)cc1)N1CCNCC1 [CHEMBL1908397, O=C(c1ccc(/C=C/c2n[nH]c3c2cccc3)cc1)N1CCNCC1]",3600 nM
18,"Cc1cccc2c3c(ccc12)C1=C(C(=O)C3=O)[C@@H](C)CO1 [CHEMBL227075, C[C@@H]1C(C(C(c2c3ccc4c(C)cccc24)=O)=O)=C3OC1]",3050 nM
